Source: PubChem BioAssay (NCI)
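All cell lines were grown in 96-well plates and treated with compound for 48 hours. TGI denotes the concentration required for complete inhibition of growth.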

What was measured:
Assay in all cases: NCI anticancer screen, dose series, 48 h
[1] = test system: SK-MEL-5 melanoma
[2] = test system: BT-549 breast
[3] = test system: SK-MEL-2 melanoma
[4] = test system: NCI/ADR-RES ovarian
[5] = test system: U251 CNS
[6] = test system: IGROV1 ovarian
[7] = test system: SF-539 CNS
[8] = test system: CCRF-CEM leukemia
[9] = test system: NCI-H23 lung
[10] = test system: HOP-92 NSCLC
[11] = test system: UACC-62 melanoma
[12] = test system: TK-10 renal
[13] = test system: SNB-75 CNS
[14] = test system: ACHN renal
[15] = test system: HT29 colon
[16] = test system: NCI-H522 lung
[17] = test system: A549 NSCLC
[18] = test system: M14 melanoma
[19] = test system: COLO 205 colon
[20] = test system: SN12C renal
[21] = test system: SR leukemia
[22] = test system: HCT-116 colon
[23] = test system: SNB-19 CNS
[24] = test system: MDA-MB-435
[25] = test system: LOX IMVI melanoma
[26] = test system: NCI-H226 lung
[27] = test system: MALME-3M melanoma
[28] = test system: UACC-257 melanoma
[29] = test system: OVCAR-8 ovarian
[30] = test system: HOP-62 NSCLC
[31] = test system: SK-MEL-28 melanoma
[32] = test system: OVCAR-5 ovarian
[33] = test system: K-562 leukemia
[34] = test system: OVCAR-3 ovarian
[35] = test system: HCC-2998 colon
[36] = test system: HCT-15 colon
[37] = test system: HS 578T breast
[38] = test system: MOLT-4 leukemia
[39] = test system: EKVX NSCLC
[40] = test system: 786-0 renal
[41] = test system: KM12 colon
[42] = test system: UO-31 renal
[43] = test system: PC-3 prostate
[44] = test system: MDA-N
[45] = test system: SF-295 CNS
[46] = test system: DU-145 prostate
[47] = test system: MDA-MB-231 breast
[48] = test system: RXF 393 renal
[49] = test system: SF-268 CNS
[50] = test system: RPMI-8226 leukemia
[51] = test system: SW-620 colon
[52] = test system: CAKI-1 renal
[53] = test system: MCF7 breast
[54] = test system: A498 renal
[55] = test system: NCI-H460 lung
[56] = test system: HL-60(TB) leukemia

Cc1cc(-c2nc3ccc(F)cc3s2)ccc1N
TGI [1]: > 100 µM | TGI [2]: > 100 µM | TGI [3]: > 100 µM | TGI [4]: > 100 µM | TGI [5]: > 100 µM | TGI [6]: > 100 µM | TGI [7]: > 100 µM | TGI [8]: > 100 µM | TGI [9]: > 100 µM | TGI [10]: > 100 µM | TGI [11]: > 100 µM | TGI [12]: > 100 µM | TGI [13]: > 100 µM | TGI [14]: > 100 µM | TGI [15]: > 100 µM | TGI [16]: > 100 µM | TGI [17]: > 100 µM | TGI [18]: > 100 µM | TGI [19]: > 100 µM | TGI [20]: > 100 µM | TGI [21]: > 100 µM | TGI [22]: > 100 µM | TGI [23]: > 100 µM | TGI [24]: > 100 µM | TGI [25]: > 100 µM | TGI [26]: > 100 µM | TGI [27]: > 100 µM | TGI [28]: > 100 µM | TGI [29]: > 100 µM | TGI [30]: > 100 µM | TGI [31]: > 100 µM | TGI [32]: > 100 µM | TGI [33]: > 100 µM | TGI [34]: > 100 µM | TGI [35]: > 100 µM | TGI [36]: > 100 µM | TGI [37]: > 100 µM | TGI [38]: > 100 µM | TGI [39]: > 100 µM | TGI [40]: > 100 µM | TGI [41]: > 100 µM | TGI [42]: > 100 µM | TGI [43]: > 100 µM | TGI [44]: > 100 µM | TGI [45]: > 100 µM | TGI [46]: > 100 µM | TGI [47]: > 100 µM | TGI [48]: > 100 µM | TGI [49]: > 100 µM | TGI [50]: > 100 µM | TGI [51]: > 100 µM | TGI [52]: > 100 µM | TGI [53]: > 100 µM | TGI [54]: > 100 µM

CN1CC[C@]2(c3cccc(O)c3)CC(=O)/C(=C/c3ccc(Cl)c(Cl)c3)[C@@H]1C2
TGI [1]: 3.1 µM | TGI [2]: 3.14 µM | TGI [4]: 6.76 µM | TGI [5]: 2.14 µM | TGI [6]: 3.72 µM | TGI [7]: 4.52 µM | TGI [8]: 2.85 µM | TGI [9]: 4.33 µM | TGI [10]: 2.57 µM | TGI [12]: 3.48 µM | TGI [13]: 1.55 µM | TGI [14]: 2.38 µM | TGI [15]: 2.22 µM | TGI [17]: 3.36 µM | TGI [18]: 3.08 µM | TGI [19]: 2.96 µM | TGI [20]: 2.29 µM | TGI [21]: 10.3 µM | TGI [55]: 3.39 µM | TGI [22]: 2.47 µM | TGI [23]: 3.48 µM | TGI [24]: 1.4 µM | TGI [25]: 0.327 µM | TGI [26]: 4.7 µM | TGI [27]: 2.85 µM | TGI [28]: 2.93 µM | TGI [29]: 4.35 µM | TGI [31]: 3.28 µM | TGI [32]: 3.18 µM | TGI [33]: 1.1 µM | TGI [35]: 2.77 µM | TGI [36]: 2.52 µM | TGI [37]: 6.59 µM | TGI [38]: 0.71 µM | TGI [39]: 3.03 µM | TGI [40]: 2.23 µM | TGI [41]: 2.06 µM | TGI [42]: 2.61 µM | TGI [43]: 1.42 µM | TGI [44]: 1.83 µM | TGI [45]: 2.86 µM | TGI [46]: 3.01 µM | TGI [47]: 2.4 µM | TGI [48]: 1.92 µM | TGI [49]: 3.66 µM | TGI [50]: 0.901 µM | TGI [51]: 2.41 µM | TGI [52]: 2.32 µM | TGI [56]: 0.464 µM | TGI [53]: 9.41 µM | TGI [54]: 3.69 µM
